This note sets out measurements from publication PMC10373466 (ACS Omega, 2023).

Molecules are shown by their SMILES.

The target of the assay is hAChE (Homo sapiens, UniProt P22303). Description: In vitro AChE inhibition assay. It counts as biochemical. The note with it: in vitro AChE inhibition IC50 ± SD, Ellman method, n = 3. Background: Ellman's reagent forms a yellow product with free thiols.
hAChE, sequence (P22303 32-614): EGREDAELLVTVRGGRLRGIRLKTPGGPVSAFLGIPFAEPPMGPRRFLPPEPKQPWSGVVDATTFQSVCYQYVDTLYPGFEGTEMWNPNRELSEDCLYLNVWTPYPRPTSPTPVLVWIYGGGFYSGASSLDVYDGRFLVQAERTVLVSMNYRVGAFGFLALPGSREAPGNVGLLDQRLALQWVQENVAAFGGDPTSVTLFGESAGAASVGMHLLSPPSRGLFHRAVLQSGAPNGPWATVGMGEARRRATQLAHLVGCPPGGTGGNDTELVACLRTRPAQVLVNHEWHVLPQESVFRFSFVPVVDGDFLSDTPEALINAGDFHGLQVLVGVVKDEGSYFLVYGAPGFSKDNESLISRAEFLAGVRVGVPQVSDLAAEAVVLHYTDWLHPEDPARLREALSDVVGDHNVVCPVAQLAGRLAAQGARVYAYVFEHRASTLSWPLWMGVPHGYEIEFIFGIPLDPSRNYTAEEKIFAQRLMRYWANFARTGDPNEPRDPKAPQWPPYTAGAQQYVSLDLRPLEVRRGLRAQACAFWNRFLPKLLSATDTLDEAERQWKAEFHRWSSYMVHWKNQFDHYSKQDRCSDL
For the compound `Nc1c2c(nc3c1C(c1cccc(Br)c1)c1ccc(O)cc1O3)CCCC2` (centres unmarked) [3a, 11-Amino-12-(3-bromophenyl)-7,9,10,12-tetrahydro-8H-chromeno[2,3-b]quinolin-3-ol], the IC50 – broadly, the concentration at which inhibition is half-maximal – worked out at 3.48 ± 0.19 µM.
`COc1cccc(C2c3ccc(O)cc3Oc3nc4c(c(N)c32)CCCC4)c1` (centres unmarked) [3b, 11-Amino-12-(3-methoxyphenyl)-7,9,10,12-tetrahydro-8H-chromeno[2,3-b]quinolin-3-ol] gave an IC50 of 26.7 ± 1.42 µM.
Under `Nc1c2c(nc3c1C(c1cccc([N+](=O)[O-])c1)c1ccc(O)cc1O3)CCCC2` (centres unmarked) [3c, 11-Amino-12-(3-nitrophenyl)-7,9,10,12-tetrahydro-8H-chromeno[2,3-b]quinolin-3-ol] stands 15.1 ± 0.8 µM; under `Nc1c2c(nc3c1C(c1ccc(Cl)c(Cl)c1)c1ccc(O)cc1O3)CCCC2` (centres unmarked) [3d, 11-Amino-12-(3,4-dichlorophenyl)-7,9,10,12-tetrahydro-8H-chromeno[2,3-b]quinolin-3-ol], 5.31 ± 0.28 µM.
In turn, `COc1ccccc1C1c2ccc(O)cc2Oc2nc3c(c(N)c21)CCCC3` (centres unmarked) [3e, 11-Amino-12-(2-methoxyphenyl)-7,9, 10, 12-tetrahydro-8H-chromeno[2,3-b]quinolin-3-ol] yielded an IC50 of 5.88 ± 0.31 µM.
To `Nc1c2c(nc3c1C(c1cccc(Br)c1)c1ccc(OS(=O)(=O)c4ccc(F)cc4)cc1O3)CCCC2` (centres unmarked) [4a, 11-Amino-12-(3-bromophenyl)-7,9,10,12-tetrahydro-8H-chromeno[2,3-b]quinolin-3-yl-4-fluorobenzenesulfonate] belongs 3.88 ± 0.21 µM.
`COc1cccc(C2c3ccc(OS(=O)(=O)c4ccc(F)cc4)cc3Oc3nc4c(c(N)c32)CCCC4)c1` (centres unmarked) [4b, 11-Amino-12-(3-methoxyphenyl)-7,9,10,12-tetrahydro-8H-chromeno[2,3-b]quinolin-3-yl-4-fluorobenzenesulfonate] registered an IC50 of 13.5 ± 0.72 µM.
Under `Nc1c2c(nc3c1C(c1ccc(Cl)c(Cl)c1)c1ccc(OS(=O)(=O)c4ccc(F)cc4)cc1O3)CCCC2` (centres unmarked) [4d, 11-Amino-12-(3,4-dichlorophenyl)-7,9,10,12-tetrahydro-8H-chromeno[2,3-b]quinolin-3-yl-4-fluorobenzenesulfonate] stands 6.09 ± 0.32 µM; under `COc1ccccc1C1c2ccc(OS(=O)(=O)c3ccc(F)cc3)cc2Oc2nc3c(c(N)c21)CCCC3` (centres unmarked) [4e, 11-Amino-12-(2-methoxyphenyl)-7,9,10,12-tetrahydro-8H-chromeno[2,3-b]quinolin-3-yl-4-fluorobenzenesulfonate], 22.4 ± 1.19 µM.
The compound `COc1ccc(S(=O)(=O)Oc2ccc3c(c2)Oc2nc4c(c(N)c2C3c2cccc(Br)c2)CCCC4)cc1` (centres unmarked) [4f, 11-Amino-12-(3-bromophenyl)-7,9,10,12-tetrahydro-8H-chromeno[2,3-b]quinolin-3-yl-4-methoxybenzenesulfonate] had an IC50 of 0.73 ± 0.03 µM.
Compound `COc1ccc(S(=O)(=O)Oc2ccc3c(c2)Oc2nc4c(c(N)c2C3c2cccc([N+](=O)[O-])c2)CCCC4)cc1` (centres unmarked) [4h, 11-Amino-12-(3-nitrophenyl)-7,9,10,12-tetrahydro-8H-chromeno[2,3-b]quinolin-3-yl-4-methoxybenzenesulfonate] had an IC50 of 1.53 ± 0.07 µM.
Under `COc1ccc(S(=O)(=O)Oc2ccc3c(c2)Oc2nc4c(c(N)c2C3c2ccc(Cl)c(Cl)c2)CCCC4)cc1` (centres unmarked) [4i, 11-Amino-12-(3,4-dichlorophenyl)-7,9,10,12-tetrahydro-8H-chromeno[2,3-b]quinolin-3-yl-4-methoxybenzenesulfonate] stands 2.2 ± 0.1 µM.
To `COc1ccc(S(=O)(=O)Oc2ccc3c(c2)Oc2nc4c(c(N)c2C3c2ccccc2OC)CCCC4)cc1` (centres unmarked) [4j, 11-Amino-12-(2-methoxyphenyl)-7,9,10,12-tetrahydro-8H-chromeno[2,3-b]quinolin-3-yl-4-methoxybenzenesulfonate] belongs 5.16 ± 0.22 µM; to `Cc1ccc(S(=O)(=O)Oc2ccc3c(c2)Oc2nc4c(c(N)c2C3c2cccc(Br)c2)CCCC4)cc1` (centres unmarked) [4k, 11-Amino-12-(3-bromophenyl)-7,9,10,12-tetrahydro-8H-chromeno[2,3-b]quinolin-3-yl-4-methylbenzenesulfonate], 9.35 ± 0.4 µM.
